The source of these data is patent publication US20250375453A1, “HIGH-EFFICIENCY ANTIMICROBIAL COMPOSITION” (CM4CURE S.A., priority 2023, published 2025).

Structures are written as SMILES.

The subject of experiment [1] is Pseudomonas aeruginosa (ATCC 15442). The experiment in a line: Real-time microcalorimetric measurement of bacterial metabolic activity (heat flow, Calscreener). The note with it: chlorhexidine digluconate alone, tested 1-24 mg/L, TSB, 37 C, 24 h or more. In kind it is cell-based. Here is the method:
Pseudomonas aeruginosa (ATCC 15442) was grown overnight in TSB (tryptic soy broth) medium, before being diluted 1×10^7 fold in fresh TSB. Subsequently […] aliquots of diluted bacteria suspensions were respectively supplemented with 1, 2, 4, 6, 12 and 24 mg/L of chlorhexidine (digluconate solution, 20% in H2O, Merck). The aqueous solution of chlorhexidine was kept refrigerated according to the manufacturer's technical sheet. Chlorhexidine or mQH2O as a vehicle were added to the bacterial suspensions to obtain the given concentrations followed by a brief vortexing. Bacterial aliquots were then distributed in the dedicated non-activated inserts of a 48-well plate and grown for 24h or more under static conditions at 37 C using Calscreener technology to measure bacterial growth and metabolic activity in Real-Time as described in https://cordis.europa.eu/project/id/784514.
For the study of the combination of chlorhexidine and triafluocyl aforementioned diluted bacterial suspensions were supplemented with either chlorhexidine alone (1, 2, 4, 6, 12 mg/L) or mixed with triafluocyl (20 mg/L, Polpharma). Triafluocyl was stored in absolute ethanol in the refrigerator at a concentration of 3 mg/mL. Triafluocyl, chlorhexidine or both, and ethanol as a vehicle were added to the bacterial suspensions to obtain the given concentrations.
Pseudomonas aeruginosa (ATCC 15442) was grown overnight in TSB (tryptic soy broth) medium, before being diluted 1×10^7 fold in fresh TSB. Subsequently […] aliquots of diluted bacteria suspensions were respectively supplemented with […] of alexidine dihydrochloride (stock solution of 3 mg/mL in ethanol, Merck). […] The stock solutions of alexidine and fluometacyl were kept frozen according to the manufacturer's technical sheet. Alexidine alone or with fluometacyl, and ethanol as a vehicle were added to the bacterial suspensions to obtain the given concentrations followed by a brief vortexing. […]

For the next experiment, the system named is Porphyromonas gingivalis. The note with it: cited from earlier work.
Another experiment has as its system Fusobacterium nucleatum. The settings on record: cited from earlier work.
The next experiment relates to Candida albicans. The settings on record: cited from earlier work.

As for `[H]/N=C(\N/C(=N/[H])NCCCCCCNC(=N)NC(=N)Nc1ccc(Cl)cc1)Nc1ccc(Cl)cc1` [Chlorhexidine, chlorhexidine], the “concentration that fully inhibits bacterial proliferation” value in experiment [1] was 24 mg/L. For the same compound, the MIC of chlorhexdine in the experiment on Porphyromonas gingivalis was 0.9 mg/L; in the experiment on Fusobacterium nucleatum it was 1.8 mg/L; with Candida albicans, 1 to 16 mg/L.
